Test system: Erwinia amylovora (Ea) strain AFRS-581
Assay: Fireblight blossom infection on potted 'Rome' apple trees inoculated with Erwinia amylovora, greenhouse
Assay type: in vivo
Conditions: 'Rome' apple blossoms sprayed with 10^8 CFU Ea, treated about 1 hour later, scored after 7 days; PM 3% weight by volume; copper hydroxide 0.5 g/l; Blight Ban 1 g/l; streptomycin 0.5 g/l
Experimental: The enhanced effect of reducing fireblight in apple trees with the pesticide delivery system of the present invention containing bactericides is examined and compared to conventional pesticides.
Experiments are conducted on potted trees of ‘Rome’ apple in a naturally illuminated greenhouse. When about 80% of the blooms are open, open blossoms are sprayed to drip with 10^8 CFU of Erwinia amylovora (Ea) strain AFRS-581. After drying for about 1 hour, each the following treatments are applied to six of the infected trees. Slurries containing particulate materials (PM) (3% weight by volume), water and copper hydroxide at 0.5 g/l (Copper Count N from Mineral Research Development Co., Charlotte, N.C., a bactericide), Blight Ban at 1 g/l (from Plant Health Technologies, Boise, Id., a microbial bactericide), or streptomycin at 0.5 g/l (from Novartis Crop Protection Inc., Greensboro, N.C., an antibiotic); and slurries containing PM (3% weight by volume) and water; and mixtures of water and copper hydroxide at 0.5 g/l, Blight Ban at 1 g/l, or streptomycin at 0.5 g/l are applied to the apple trees. […]
After 7 days, blossom necrosis symptoms are present and recorded. Disease data are expressed as percentage of blossom infect rate.

Question: Which “% Blossom Infection” value does the source give for [Cu+2].[OH-].[OH-] [copper hydroxide] here?
Answer: 87.1%

Question: [H]/N=C(/N)N[C@H]1[C@H](O)[C@@H](O)[C@H](O[C@@H]2O[C@@H](C)[C@](O)(C=O)[C@H]2O[C@@H]2O[C@@H](CO)[C@H](O)[C@@H](O)[C@@H]2NC)[C@@H](N/C(N)=N\[H])[C@@H]1O [streptomycin] was tested. Which “% Blossom Infection” value did it give?
Answer: 83.3%

From patent publication US7018643B2, “Pesticide delivery system” (Engelhard Corporation, priority 2000, dated 2006)
